These results are taken from US10336697B2, “Spiro[cyclobutane-1,3′-indolin]-2′-one derivatives as bromodomain inhibitors” (Orion Corporation, priority 2015, dated 2019).

The target in the assay is Bet BRD4 full length bromo-domain protein (Homo sapiens, UniProt O60885). As to the kind of experiment: Bet bromodomain TR-FRET assay (displacement of acetyl histone peptide). The class given is binding. The note with it: Bet BRD4 full length bromodomain protein, 300 nM acetyl histone peptide substrate, read-out: IC50.

In the case of `COc1ccccc1S(=O)(=O)Nc1cc(OC2CCN(C(C)=O)CC2)c2c(c1)C1(CCC1)C(=O)N2` [Compound-220], the IC50 was less than 600 nM.

On to `O=C(Nc1cc(Br)c2c(c1)C1(CCC1)C(=O)N2)c1cccnc1N1CCOCC1` [Compound-222, N-(7′-bromo-2′-oxospiro[cyclobutane-1,3′-indolin]-5′-yl)-2-morpholinonicotinamide], for which the IC50 was more than 1000 nM.

As to `O=C(Nc1cc(C2CC2)c2c(c1)C1(CCC1)C(=O)N2)c1cccnc1N1CCOCC1` [Compound-223, N-(7′-cyclopropyl-2′oxospiro[cyclobutane-1,3′-indolin]-5′-yl)-2-morpholinonicotinamide], the IC50 is more than 1000 nM. With `CN1CCC(Oc2cc(NS(=O)(=O)c3ccccc3F)cc3c2NC(=O)C32CCC2)CC1` [compound 128], the IC50 is less than 600 nM. The result for `CCN(c1cc(OC2CCN(C)CC2)c2c(c1)C1(CCC1)C(=O)N2)S(=O)(=O)c1ccccc1OC` [compound 179, N-ethyl-2-methoxy-N-(7′-((1-methylpiperidin-4-yl)oxy)-2′-oxospiro[cyclobutane-1,3′-indolin]-5′-yl)benzenesulfonamide] reads more than 1000 nM; that for `CN1CCC(Oc2cc(N(C)S(=O)(=O)c3ccc(F)cc3F)cc3c2NC(=O)C32CCC2)CC1` [compound 180, 2,4-Difluoro-N-methyl-N-(7′-((1-methylpiperidin-4-yl)oxy)-2′-oxospiro[cyclobutane-1,3′-indolin]-5′-yl)benzenesulfonamide], less than 600 nM.

Take `COc1cccc(OC)c1S(=O)(=O)Nc1cc(OC2CCN(C)CC2)c2c(c1)C1(CCC1)C(=O)N2` [compound 186, 2,6-Dimethoxy-N-(7′-((1-methylpiperidin-4-yl)oxy)-2′-oxospiro[cyclobutane-1,3′-indolin]-5′-yl)benzenesulfonamide]: the concentration for half-maximal inhibition (IC50) was more than 1000 nM. Consider `COc1ccc(S(=O)(=O)Nc2cc(OC3CCN(C)CC3)c3c(c2)C2(CCC2)C(=O)N3)c(OC)c1` [compound 187, 2,4-Dimethoxy-N-(7′-((1-methylpiperidin-4-yl)oxy)-2′-oxospiro[cyclobutane-1,3′-indolin]-5′-yl)benzenesulfonamide], for which the concentration for half-maximal inhibition (IC50) was less than 600 nM. As for `COc1cc(Cl)ccc1S(=O)(=O)Nc1cc(OC2CCN(C)CC2)c2c(c1)C1(CCC1)C(=O)N2` [compound 188, 4-Chloro-2-methoxy-N-(7′-((1-methylpiperidin-4-yl)oxy)-2′-oxospiro[cyclobutane-1,3′-indolin]-5′-yl)benzenesulfonamide], the 50% inhibitory concentration (IC50) is less than 600 nM.

As to `CN1CCOC(COc2cc(NS(=O)(=O)c3ccc(Cl)cc3F)cc3c2NC(=O)C32CCC2)C1` (stereo not shown) [compound 194, 4-Chloro-2-fluoro-N-(7′-((4-methylmorpholin-2-yl)methoxy)-2′-oxospiro[cyclobutane-1,3′-indolin]-5′-yl)benzenesulfonamide], the half-maximal inhibitory concentration (IC50) is less than 600 nM. Consider `CC1CC(Oc2cc(NS(=O)(=O)c3ccc(Cl)cc3F)cc3c2NC(=O)C32CCC2)CC(C)N1C` (stereo not shown) [compound 195, 4-Chloro-2-fluoro-N-(2′-oxo-7′-((1,2,6-trimethylpiperidin-4-yl)oxy)spiro[cyclobutane-1,3′-indolin]-5′-yl)benzenesulfonamide], for which the half-inhibitory concentration (IC50) is less than 600 nM.

Consider `CCN(C)CCOc1cc(NS(=O)(=O)c2ccccc2OC)cc2c1NC(=O)C21CCC1` [compound 196, N-(7′-(2-(ethyl(methyl)amino)ethoxy)-2′-oxospiro[cyclobutane-1,3′-indolin]-5′-yl)-2-methoxybenzenesulfonamide], for which the IC50 is less than 600 nM. For `O=C1Nc2c(OC3CCNCC3F)cc(NS(=O)(=O)c3ccc(Cl)cc3F)cc2C12CCC2` (stereo not shown) [compound 198, 4-Chloro-2-fluoro-N-(7′-((3-fluoropiperidin-4-yl)oxy)-2′-oxospiro[cyclobutane-1,3′-indolin]-5′-yl)benzenesulfonamide], the half-inhibitory concentration (IC50) was less than 600 nM. With `COc1ccccc1S(=O)(=O)Nc1cc(OC2CCNCC2)c2c(c1)C1(CCC1)C(=O)N2` [compound 199, 2-Methoxy-N-(2′-oxo-7′-(piperidin-4-yloxy)spiro[cyclobutane-1,3′-indolin]-5′-yl)benzenesulfonamide], the IC50 is less than 600 nM. The result for `O=C1Nc2c(OC3CCCNC3)cc(NS(=O)(=O)c3ccc(Cl)cc3F)cc2C12CCC2` (stereo not shown) [compound 200, 4-Chloro-2-fluoro-N-(2′-oxo-7′-(piperidin-3-yloxy)spiro[cyclobutane-1,3′-indolin]-5′-yl)benzenesulfonamide] reads less than 600 nM; that for `CC1CC(Oc2cc(NS(=O)(=O)c3ccc(Cl)cc3F)cc3c2NC(=O)C32CCC2)CC(C)N1` (stereo not shown) [compound 201, 4-Chloro-N-(7′-((2,6-dimethylpiperidin-4-yl)oxy)-2′-oxospiro[cyclobutane-1,3′-indolin]-5′-yl)-2-fluorobenzenesulfonamide], less than 600 nM. As for `O=C1Nc2c(OCC3CNCCO3)cc(NS(=O)(=O)c3ccc(Cl)cc3F)cc2C12CCC2` (stereo not shown) [compound 202, 4-Chloro-2-fluoro-N-(7′-(morpholin-2-ylmethoxy)-2′-oxospiro[cyclobutane-1,3′-indolin]-5′-yl)benzenesulfonamide], the IC50 was less than 600 nM.

As to `CNCCOc1cc(NS(=O)(=O)c2ccccc2OC)cc2c1NC(=O)C21CCC1` [compound 204, 2-Methoxy-N-(7′-(2-(methylamino)ethoxy)-2′-oxospiro[cyclobutane-1,3′-indolin]-5′-yl)benzenesulfonamide], the half-maximal inhibitory concentration (IC50) was less than 600 nM. Regarding `CCNCCOc1cc(NS(=O)(=O)c2ccccc2OC)cc2c1NC(=O)C21CCC1` [compound 205, N-(7′-(2-(ethylamino)ethoxy)-2′-oxospiro[cyclobutane-1,3′-indolin]-5′-yl)-2-methoxybenzenesulfonamide], the concentration for half-maximal inhibition (IC50) is less than 600 nM. `COc1ccccc1S(=O)(=O)Nc1cc(OCCNC2CC2)c2c(c1)C1(CCC1)C(=O)N2` [compound 206, N-(7′-(2-(cyclopropylamino)ethoxy)-2′-oxospiro[cyclobutane-1,3′-indolin]-5′-yl)-2-methoxybenzenesulfonamide]: the half-maximal inhibitory concentration (IC50) was less than 600 nM. Regarding `NC1(COc2cc(NS(=O)(=O)c3ccc(Cl)cc3F)cc3c2NC(=O)C32CCC2)CC1` [compound 207, N-(7′-((1-aminocyclopropyl)methoxy)-2′-oxospiro[cyclobutane-1,3′-indolin]-5′-yl)-4-chloro-2-fluorobenzenesulfonamide], the IC50 was less than 600 nM.

As for `COc1ccccc1S(=O)(=O)Nc1cc(Oc2cc[nH]c(=O)c2)c2c(c1)C1(CCC1)C(=O)N2` [compound 213, 2-Methoxy-N-(2′-oxo-7′-((2-oxo-1,2-dihydropyridin-4-yl)oxy)spiro[cyclobutane-1,3′-indolin]-5′-yl)benzenesulfonamide], the IC50 is less than 600 nM.

Turning to `COc1ccccc1S(=O)(=O)Nc1cc(OC2CCN(C)CC2)c2c(c1Br)C1(CCC1)C(=O)N2` [compound 216, N-(4′-bromo-7′-((1-methylpiperidin-4-yl)oxy)-2′-oxospiro[cyclobutane-1,3′-indolin]-5′-yl)-2-methoxybenzenesulfonamide], the IC50 is more than 1000 nM. With `CN1CCC(Oc2cc(NC(=O)/C=C/c3ccccc3)cc3c2NC(=O)C32CCC2)CC1` [compound 219, N-(7′-((1-methylpiperidin-4-yl)oxy)-2′-oxospiro[cyclobutane-1,3′-indolin]-5′-yl)cinnamamide], the half-inhibitory concentration (IC50) is less than 600 nM. Turning to `CN1CCC(Oc2cc(NC(=O)c3ccc(Cl)cc3F)cc3c2NC(=O)C32CCC2)CC1` [compound 224, 4-Chloro-2-fluoro-N-(7′-((1-methylpiperidin-4-yl)oxy)-2′-oxospiro[cyclobutane-1,3′-indolin]-5′-yl)benzamide], the IC50 was more than 1000 nM.

As a reminder, the IC50 is the concentration that gives 50% inhibition.
